Source: patent US20250214969A1, “PROTEIN DEGRADERS AND USES THEREOF” (Kymera Therapeutics, Inc., priority 2022, published 2025)

Assays:
[1] = target: T1, truncated His-MBP-Tev-KLHDC2 (residues 1-363) (Homo sapiens, UniProt Q9Y2U9); test: KLHDC2 HTRF binding assay; details: 1 nM KLHDC2 (residues 1-363), fluorescein-labeled diglycine peptide probe
T1 construct: truncated His -MBP-Tev-KLHDC2 (residues 1-363) purified from E. coli; made in house; host or cells: E. coli
T1 sequence (Q9Y2U9 1-363): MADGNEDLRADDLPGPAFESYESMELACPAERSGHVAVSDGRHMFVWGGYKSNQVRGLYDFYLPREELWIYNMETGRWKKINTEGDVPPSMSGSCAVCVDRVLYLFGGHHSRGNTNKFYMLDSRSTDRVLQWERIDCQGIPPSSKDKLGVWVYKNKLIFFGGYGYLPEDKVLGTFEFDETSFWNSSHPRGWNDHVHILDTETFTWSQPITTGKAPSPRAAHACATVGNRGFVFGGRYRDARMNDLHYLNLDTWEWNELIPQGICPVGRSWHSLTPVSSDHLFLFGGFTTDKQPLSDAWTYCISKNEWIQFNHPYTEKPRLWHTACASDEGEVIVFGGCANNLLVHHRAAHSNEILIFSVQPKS

[2] = target: T1, truncated His-MBP-Tev-KLHDC2 (residues 1-363); test: KLHDC2 FP competition binding assay; details: 15 nM KLHDC2 (residues 1-363), 10 nM fluorescein-labeled diglycine peptide probe, read-out: KLHDC2 binding Human FP: average external IC50

| IC50 [1] [µM] | IC50 [2] [µM] | SMILES |
| --- | --- | --- |
| 0.5 to 5 | > 5 | O=C(O)Cn1cc(NC(=O)c2cccc(-c3cccnc3)c2)c(C(F)(F)F)cc1=O [I-73] |
| > 5 | > 5 | O=C(O)Cn1cc(-c2ccc(N3CCOCC3)cc2)ccc1=O [I-312] |
| > 5 | > 5 | CC(NC(=O)CCC(=O)O)C(=O)c1ccccc1 (centres unmarked) [I-219] |
| 0.05 to 0.5 | 0.5 to 5 | O=C(O)Cn1cc(NC(=O)c2cccc(-c3cccnc3)c2)c(Cl)cc1=O [I-97] |
| 0.5 to 5 | 0.5 to 5 | C[C@]1(C(=O)Nc2ccc(=O)n(CC(=O)O)c2)CCCN(c2cccnc2)C1 [I-75] |
| 0.05 to 0.5 | 0.5 to 5 | O=C(O)Cc1cc(NC(=O)[C@H]2CCCN(c3cccnc3)C2)ccc1Cl [I-35] |
| > 5 | > 5 | O=C(O)Cn1cc(NC(=O)c2cc(-c3ccccc3)ccn2)ccc1=O [I-267] |
| > 5 | > 5 | O=C(O)Cn1cc(NC(=O)COc2ccccc2Cl)ccc1=O [I-282] |
| > 5 | > 5 | Cc1cc(C(=O)Nc2ccc(=O)n(CC(=O)O)c2)sc1-c1cccnc1 [I-171] |
| > 5 | > 5 | O=C(O)Cn1cc(NC(=O)[C@H]2CCCN(c3cccnc3)C2)c(C(F)(F)F)cc1=O [I-67] |
| > 5 | > 5 | O=C(O)Cn1cc(N2C[C@@]3(CCCN(c4cccnc4)C3)CC2=O)ccc1=O [I-17] |
| > 5 | > 5 | O=C(O)Cn1cc(NC(=O)c2ccc3nc(Cl)ccc3c2)ccc1=O [I-176] |
| > 5 | > 5 | O=C(O)Cn1cc(-c2cncc(/C=C/c3ccccc3)c2)ccc1=O [I-287] |
| 0.5 to 5 | > 5 | O=C(O)Cn1cc(NC(=O)c2cccc(-c3cncs3)c2)ccc1=O [I-168] |
| > 5 | > 5 | COc1cc2ccccc2cc1C(=O)Nc1ccc(=O)n(CC(=O)O)c1 [I-320] |
| 0.5 to 5 | 0.05 to 0.5 | COc1cc(-c2ccc(F)c(CCCCCCCCCNC(=O)C[C@@H]3N=C(c4ccc(Cl)cc4)c4c(sc(C)c4C)-n4c(C)nnc43)c2)ccc1C(=O)Nc1ccc(=O)n(CC(=O)O)c1 [I-469] |

| IC50 [1] [µM] | IC50 [2] [µM] | SMILES |
| --- | --- | --- |
| > 5 | > 5 | Cc1cccc(-c2ccc(=O)n(CC(=O)O)c2)c1 [I-422] |
| > 5 | > 5 | CCOC(=O)Cn1cc(NC(=O)c2cccc(-c3cncc(CCCCCCN)c3)c2)ccc1=O [I-159] |
| > 5 | > 5 | O=C(O)Cn1cc(N2Cc3ccccc3C2=O)ccc1=O [I-307] |
| > 5 | > 5 | O=C(O)Cn1cc(NC(=O)c2ccc(-c3ccccc3Cl)o2)ccc1=O [I-255] |
| 0.5 to 5 | > 5 | O=C(O)Cn1cc(NC(=O)c2ccc(-c3ccccc3)c(F)c2)ccc1=O [I-311] |
| > 5 | > 5 | O=C(O)C1CC(=O)N(C2CCSc3ccccc32)C1 (centres unmarked) [I-213] |
| > 5 | > 5 | Cc1nn(-c2ccc(F)cc2F)c(C)c1CC(=O)Nc1ccc(=O)n(CC(=O)O)c1 [I-246] |
| > 5 | > 5 | Cc1cc(C)c(-c2ccc(=O)n(CC(=O)O)c2)cc1C [I-356] |
| > 5 | > 5 | O=C(O)Cn1cc(N2CC[C@]3(CCN(c4cccnc4)C3)C2=O)ccc1=O [I-1] |
| > 5 | > 5 | O=C(O)Cn1cc(-c2cccc(/C=C/c3ccccc3)c2)ccc1=O [I-296] |
| > 5 | > 5 | CN(CC(C)(C)C(=O)Nc1ccc(=O)n(CC(=O)O)c1)c1cccnc1 [I-36] |
| 0.5 to 5 | > 5 | O=C(O)Cn1cc(N2CC[C@@]3(CCN(c4cccnc4)C3)C2=O)ccc1=O [I-2] |
| > 5 | > 5 | O=C(O)Cn1cc(NC(=O)c2cccc(-c3ccccn3)c2)ccc1=O [I-209] |
| > 5 | > 5 | COc1cncc(-c2cccc(C(=O)Nc3ccc4c(c3)CC(=O)O4)c2)c1 [I-13] |
| > 5 | > 5 | CS(=O)(=O)NC(=O)Cn1cc(NC(=O)c2cccc(-c3cccnc3)c2)ccc1=O [I-78] |
